Source: US20100267728A1, “3-SUBSTITUTED-1,2,3-TRIAZIN-4-ONE'S AND 3 SUBSTITUTED 1,3-PYRIMIDINONE'S FOR ENHANCING GLU[…] RESPONSES” (CORTEX PHARMACEUTICALS, INC., priority 2007, published 2010)

Experiments:
AMPA receptor [1] = experiment: Rat hippocampal slice assay: field EPSP amplitude in CA1; assay type: cell-based
Procedure: (§1) In another test, excitatory responses (field EPSPs) were measured in hippocampal slices, which were maintained in a recording chamber continuously perfused with artificial cerebrospinal fluid (ACSF). During a 15-30 minute interval, the perfusion medium was switched to one containing various concentrations of the test compounds. Responses collected immediately before and at the end of drug perfusion were superimposed in order to calculate the percent increase in EPSP amplitude.
To obtain data for the activity of invention compounds on synaptic responses, a bipolar nichrome stimulating electrode was positioned in the dendritic layer (stratum radiatum) of the hippocampal subfield CA1 close to the border of subfield CA3. Current pulses (0.1 msec) through the stimulating electrode activate a population of the Schaffer-commissural (SC) fibers, which arise from neurons in the subdivision CA3 and terminate in synapses on the dendrites of CA1 neurons. Activation of these synapses causes them to release the transmitter glutamate. Glutamate binds to post-synaptic AMPA receptors, which then transiently open an associated ion channel and permit a sodium current to enter the postsynaptic cell. This current results in a voltage in the extracellular space (the field EPSP), which is recorded by a high impedance recording electrode positioned in the middle of the stratum radiatum of CA1.
The intensity of the stimulation current was adjusted to produce half-maximal EPSPs (typically about 1.5-2.0 mV). Paired stimulation pulses were given every 40 sec with an interpulse interval of 200 msec, as described further in Example 30.
as §1, with “Hippocampal slices” for “In another test, excitatory responses (field EPSPs) were measured in hippocampal slices, which”, “During” for “During a”, “intervals,” for “interval,”
To conduct these tests, the hippocampus was removed from anesthetized, 2 month old Sprague-Dawley rats and in vitro slices (400 μm thick) were prepared and maintained in an interface chamber at 35° C. using conventional techniques [see, for example, Dunwiddie and Lynch, J. Physiol. 276: 353-367 (1978)]. The chamber was constantly perfused at 0.5 mL/min with ACSF containing (in mM): NaCl 124, KCl 3, KH2PO4 1.25, MgSO4 2.5, CaCl2 3.4, NaHCO3 26, glucose 10 and L-ascorbate 2. A bipolar nichrome stimulating electrode was positioned in the dendritic layer (stratum radiatum) of the hippocampal subfield CA1 close to the border of subfield CA3.
Current pulses (0.1 msec) through the stimulating electrode activate a population of the Schaffer-commissural (SC) fibers, which arise from neurons in the subdivision CA3 and terminate in synapses on the dendrites of CA1 neurons. Activation of these synapses causes them to release the transmitter glutamate. Glutamate binds to the post-synaptic AMPA receptors, which then transiently open an associated ion channel and permit a sodium current to enter the postsynaptic cell. This current results in a voltage in the extracellular space (the field EPSP) which is recorded by a high impedance recording electrode positioned in the middle of the stratum radiatum of CA1. The intensity of the stimulation current was adjusted to produce half-maximal EPSPs (typically about 1.5-2.0 mV). Paired stimulation pulses were given every 40 s with an interpulse interval of 200 msec (see below). The field EPSPs of the second response were digitized and analyzed to determine amplitude. If the responses were stable for 15-30 min (baseline), test compounds were added to the perfusion lines for a period of about 15 min. The perfusion was then changed back to regular ACSF. […]

AMPA receptor [2] = experiment: In vivo electrophysiology: field EPSP in dentate gyrus of anesthetized animals; design: species or system rat
Procedure: Animals are maintained under anesthesia by phenobarbital administered using a Hamilton syringe pump. Stimulating and recording electrodes are inserted into the perforant path and dentate gyrus of the hippocampus, respectively. Once electrodes are implanted, a stable baseline of evoked responses are elicited using single monophasic pulses (100 μs pulse duration) delivered at 3/min to the stimulating electrode. Field EPSPs are monitored until a stable baseline is achieved (about 20-30 min), after which a solution of test compound in HPCD is injected intraperitoneally and evoked field potentials are recorded. Evoked potentials are recorded for approximately 2 h following drug administration or until the amplitude of the field EPSP returns to baseline. In the latter instance, it is common that an iv administration is also carried out with an appropriate dose of the same test compound.

AMPA receptor [3] = experiment: In vitro patch clamp electrophysiology assay: glutamate-induced whole-cell current in cultured cortical neurons; assay type: cell-based; settings: rat cortical neurons, 500 μM glutamate
Procedure: Cortical cells were prepared from day 18-19 embryonic Sprague-Dawley rats and recorded after 3 days in culture. The extracellular solution (ECS) contained (in mM): NaCl (145), KCl (5.4), HEPES (10), MgCl2 (0.8), CaCl2 (1.8), glucose (10), sucrose (30); pH. 7.4. In order to block the voltage-gated sodium currents, 40 nM TTX was added to the recording solution. The intracellular solution contained (in mM): K-gluconate (140), HEPES (20), EGTA (1.1), phosphocreatine (5), MgATP (3), GTP (0.3), MgCl2 (5), and CaCl2 (0.1); pH: 7.2. All test compound and glutamate solutions were made-up in the extracellular solution.
The whole-cell current was measured with patch-clamp amplifier (Axopatch 200B), filtered at 2 kHz, digitized at 5 kHz and recorded on a PC with pClamp 8. The cells were voltage-clamped at −80 mV. Solutions were applied by DAD-12 system. A baseline response for each cell was recorded using a 1 s pulse of 500 μM glutamate dissolved in ECS. Responses to test compound were then determined by application of a 10 s pulse of test compound followed by a 1 s pulse of the same concentration of test compound plus 500 μM glutamate and then 10 s of saline. This pulse sequence was repeated until a stable reading was obtained, or until sufficient data points were measured to allow extrapolation to a calculated maximum change.
The mean value of plateau current between 600 ms to 900 ms after application of glutamate or test compound plus glutamate was calculated and used as the parameter to measure the drug effect. The plateau responses in the presence of varying concentrations of test compound were divided by the baseline response in order to calculate the percentage increase. Compounds are deemed active in this test if, at a test concentration of 3 μM or less, they produce a greater than 100% increase in the value of the steady-state current measured due to application of glutamate alone. The concentration at which the glutamate induced current is increased by 100% is commonly referred to as the EC2x value.

SMILES | melting point [°C] | further results
C[C@H](Cn1cncn1)n1nnc2cc3c(=O)n(C4CC4)nnc3cc2c1=O | 195 to 199 | –
CC(Cn1cccn1)n1nnc2cc3c(=O)n(C4CC4)nnc3cc2c1=O (stereo not shown) | 178 to 180 | –
CC(Cn1ncnn1)n1nnc2cc3c(=O)n(C(C)Cn4ncnn4)nnc3cc2c1=O (stereo not shown) | 223 to 226 | –
CC(Cn1cnnn1)n1nnc2cc3c(=O)n(C(C)Cn4ncnn4)nnc3cc2c1=O (stereo not shown) | 204 to 206 | –
CC(Cn1cnnn1)n1cnc2cc3c(=O)n(C4CC4)nnc3cc2c1=O (stereo not shown) | 245 to 246 | –
CCC(Cn1ncnn1)n1cnc2cc3c(=O)n(C4CC4)nnc3cc2c1=O (stereo not shown) | 160 to 161 | –
CCC(Cn1cnnn1)n1cnc2cc3c(=O)n(C4CC4)nnc3cc2c1=O (stereo not shown) | 213 to 214 | –
CCC(Cn1nccn1)n1cnc2cc3c(=O)n(C4CC4)nnc3cc2c1=O (stereo not shown) | 129 to 130 | –
CCC(Cn1ccnn1)n1cnc2cc3c(=O)n(C4CC4)nnc3cc2c1=O (stereo not shown) | 215 to 217 | –
C#CCn1nnc2cc3c(=O)n(C(C)Cn4ncnn4)cnc3cc2c1=O (stereo not shown) | 222 to 223 | –
C#CCn1nnc2cc3c(=O)n(C(C)Cn4cnnn4)cnc3cc2c1=O (stereo not shown) | 218 to 219 | –
CC[C@H](Cn1cnnn1)n1cnc2cc3c(=O)n([C@H](C)Cn4ncnn4)nnc3cc2c1=O | 198 to 200 | –
CC[C@H](Cn1nnc(C)n1)n1cnc2cc3c(=O)n([C@H](C)Cn4ncnn4)nnc3cc2c1=O | 140 to 141 | –
CC[C@H](Cn1nnnc1C)n1cnc2cc3c(=O)n([C@H](C)Cn4ncnn4)nnc3cc2c1=O | 238 to 240 | –
CC[C@H](Cn1cnnn1)n1cnc2cc3c(=O)n([C@H](CC)Cn4cnnn4)nnc3cc2c1=O | 80 to 81 | –
C[C@H](Cn1cccn1)n1cnc2cc3c(=O)n([C@H](C)Cn4cc(Cl)cn4)cnc3cc2c1=O | 231 to 232 | –
C[C@H](Cn1cnnn1)n1nnc2cc3c(=O)n([C@H](C)Cn4ncnn4)nnc3cc2c1=O | 160 to 161 | –
C[C@H](Cn1ncnn1)n1nnc2cc3c(=O)n(C4CC4)nnc3cc2c1=O [Example 1, 3-Cyclopropyl-8-[(1R)-1-methyl-2-(2H-tetrazol-2-yl)ethyl]-3,8-dihydro[1,2,3]triazino[4,5-g][1,2,3]-benzotriazine-4,9-dione] | – | % increase in the amplitude of the field EPSP in the CA1 region of rat hippocampal slice (AMPA receptor [1]; @ 3 μM): 69% @ 3 μM; % increase in the amplitude of the field EPSP in rat dentate gyrus (AMPA receptor [2]; @ 5 mpk i.p.): 37%^3; In vitro Patch Clamp Electrophysiology EC2x (concentration at which the glutamate induced current is increased by 100%) (AMPA receptor [3]): 0.28 μM
C[C@H](Cn1ncnn1)n1nnc2cc3c(=O)n(C)nnc3cc2c1=O [Example 4, 3-Methyl-8-[(2R)-1-(2H-tetrazol-2-yl)propan-2-yl]-3,8-dihydrobenzo[1,2-d:4,5-d′]bis[1,2,3]triazine-4,9-dione] | – | % increase in the amplitude of the field EPSP in the CA1 region of rat hippocampal slice (AMPA receptor [1]; @ 3 μM): 18% @ 3 μM; % increase in the amplitude of the field EPSP in rat dentate gyrus (AMPA receptor [2]; @ 5 mpk i.p.): 46%^3; In vitro Patch Clamp Electrophysiology EC2x (concentration at which the glutamate induced current is increased by 100%) (AMPA receptor [3]): 0.28 μM
COCCn1nnc2cc3c(=O)n([C@H](C)Cn4ncnn4)nnc3cc2c1=O [Example 18, 3-(2-Methoxyethyl)-8-[(2R)-1-(2H-tetrazol-2-yl)propan-2-yl]-3,8-dihydrobenzo[1,2-d: 4,5-d′]bis[1,2,3]triazine-4,9-dione] | – | % increase in the amplitude of the field EPSP in the CA1 region of rat hippocampal slice (AMPA receptor [1]; @ 10 μM): 35% @ 10 μM; % increase in the amplitude of the field EPSP in rat dentate gyrus (AMPA receptor [2]; @ 5 mpk i.p.): 34%^3
C[C@H](Cn1ncnn1)n1nnc2cc3c(=O)n(CC#N)nnc3cc2c1=O [Example 22, {4,9-Dioxo-8-[(2R)-1-(2H-tetrazol-2-yl)propan-2-yl]-8,9-dihydrobenzo[1,2-d:4,5-d′]bis[1,2,3]triazin-3(4H)-yl}acetonitrile] | – | % increase in the amplitude of the field EPSP in the CA1 region of rat hippocampal slice (AMPA receptor [1]; @ 3 μM): 24% @ 3 μM; % increase in the amplitude of the field EPSP in rat dentate gyrus (AMPA receptor [2]; @ 5 mpk i.p.): 42%^3; In vitro Patch Clamp Electrophysiology EC2x (concentration at which the glutamate induced current is increased by 100%) (AMPA receptor [3]): 0.24 μM
C[C@H](Cn1ncnn1)n1cnc2cc3c(=O)n(C4CC4)nnc3cc2c1=O [Example 53, 3-Cyclopropyl-8-[(2R)-1-(2H-tetrazol-2-yl)propan-2-yl]-3,8-dihydro[1,2,3]triazino[4,5-g]quinazoline-4,9-dione] | – | % increase in the amplitude of the field EPSP in the CA1 region of rat hippocampal slice (AMPA receptor [1]; @ 10 μM): 55% @ 10 μM; % increase in the amplitude of the field EPSP in rat dentate gyrus (AMPA receptor [2]; @ 5 mpk i.p.): 33%^3; In vitro Patch Clamp Electrophysiology EC2x (concentration at which the glutamate induced current is increased by 100%) (AMPA receptor [3]): 0.60 μM
C[C@H](Cn1ncnn1)n1nnc2cc3c(=O)n([C@H](C)Cn4ncnn4)nnc3cc2c1=O [Example 80, 3,8-Bis[(2R)-1-(2H-tetrazol-2-yl)propan-2-yl]-3,8-dihydrobenzo[1,2-d:4,5-d′]bis[1,2,3]triazine-4,9-dione] | – | % increase in the amplitude of the field EPSP in the CA1 region of rat hippocampal slice (AMPA receptor [1]; @ 3 μM): 65% @ 3 μM; % increase in the amplitude of the field EPSP in rat dentate gyrus (AMPA receptor [2]; @ 1 mpk i.p.): 59%^4; In vitro Patch Clamp Electrophysiology EC2x (concentration at which the glutamate induced current is increased by 100%) (AMPA receptor [3]): 0.016 μM
